The target of test [1] is T1, Protein deacetylase HDAC6 (Homo sapiens, UniProt Q9UBN7).
T1 sequence (Q9UBN7 whole entry): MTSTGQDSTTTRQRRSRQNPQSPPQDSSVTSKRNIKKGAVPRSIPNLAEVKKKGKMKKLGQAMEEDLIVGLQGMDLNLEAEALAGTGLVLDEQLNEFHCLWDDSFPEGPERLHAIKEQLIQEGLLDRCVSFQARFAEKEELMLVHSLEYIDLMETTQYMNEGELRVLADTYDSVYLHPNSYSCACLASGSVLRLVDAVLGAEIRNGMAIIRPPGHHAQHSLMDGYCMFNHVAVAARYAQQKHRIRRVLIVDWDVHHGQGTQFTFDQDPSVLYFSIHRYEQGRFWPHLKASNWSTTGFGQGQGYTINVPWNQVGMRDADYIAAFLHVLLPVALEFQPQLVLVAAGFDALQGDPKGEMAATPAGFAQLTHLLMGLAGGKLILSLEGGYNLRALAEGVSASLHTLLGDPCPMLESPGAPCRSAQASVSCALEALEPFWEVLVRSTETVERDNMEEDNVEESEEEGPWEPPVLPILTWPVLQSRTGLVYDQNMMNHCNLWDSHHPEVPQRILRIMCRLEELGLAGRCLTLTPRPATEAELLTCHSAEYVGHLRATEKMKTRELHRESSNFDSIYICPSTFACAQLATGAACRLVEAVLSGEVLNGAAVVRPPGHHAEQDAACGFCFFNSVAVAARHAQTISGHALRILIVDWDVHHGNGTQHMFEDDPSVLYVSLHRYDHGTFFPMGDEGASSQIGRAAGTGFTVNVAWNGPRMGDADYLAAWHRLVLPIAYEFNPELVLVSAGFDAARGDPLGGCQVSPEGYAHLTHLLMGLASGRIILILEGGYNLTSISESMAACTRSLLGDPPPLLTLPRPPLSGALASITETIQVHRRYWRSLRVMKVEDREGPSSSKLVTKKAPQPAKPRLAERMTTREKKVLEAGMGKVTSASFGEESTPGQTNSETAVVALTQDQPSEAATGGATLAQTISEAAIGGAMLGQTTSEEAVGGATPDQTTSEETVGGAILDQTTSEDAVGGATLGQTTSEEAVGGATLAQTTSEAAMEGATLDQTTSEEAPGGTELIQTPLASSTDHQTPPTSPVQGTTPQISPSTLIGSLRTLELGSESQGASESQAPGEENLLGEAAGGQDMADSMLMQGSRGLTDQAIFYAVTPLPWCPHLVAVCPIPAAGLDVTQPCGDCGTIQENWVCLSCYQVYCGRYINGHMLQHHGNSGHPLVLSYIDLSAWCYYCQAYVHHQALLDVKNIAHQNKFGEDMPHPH
Kind of test: Inhibition of human recombinant His6-tagged and GST-fuses HDAC6 expressed in insect High5 cells using Boc-Lys(eacetyl)- AMC as substrate after 3 hrs by fluorescence assay.

In a further test the target is Histone deacetylase 3 (Homo sapiens, UniProt O15379). Kind of test: Inhibition of human recombinant His6-tagged and GST-fuses HDAC3 expressed in insect High5 cells using Ac-Lys-Tyr-Lys(e-acetyl)-AMC as substrate after 24 hrs by fluorescence assay.
Chain of Histone deacetylase 3 (O15379 whole entry): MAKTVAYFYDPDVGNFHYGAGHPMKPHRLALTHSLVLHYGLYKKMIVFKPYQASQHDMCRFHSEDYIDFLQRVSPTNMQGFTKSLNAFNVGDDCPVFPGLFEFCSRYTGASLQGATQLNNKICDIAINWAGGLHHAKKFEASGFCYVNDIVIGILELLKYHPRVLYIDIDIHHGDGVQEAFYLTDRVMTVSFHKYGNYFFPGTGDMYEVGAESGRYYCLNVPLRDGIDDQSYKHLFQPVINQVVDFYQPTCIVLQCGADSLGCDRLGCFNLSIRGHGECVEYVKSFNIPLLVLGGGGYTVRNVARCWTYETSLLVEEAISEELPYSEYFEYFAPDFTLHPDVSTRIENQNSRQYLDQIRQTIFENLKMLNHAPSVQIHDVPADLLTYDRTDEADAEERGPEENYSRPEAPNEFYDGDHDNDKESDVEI
The next test deals with Histone deacetylase 1 (Homo sapiens, UniProt Q13547). Kind of test: Inhibition of human recombinant His6-tagged and GST-fuses HDAC1 expressed in insect High5 cells using Ac-Lys-Tyr-Lys(e-acetyl)-AMC as substrate after 24 hrs by fluorescence assay.
Chain of Histone deacetylase 1 (Q13547 whole entry): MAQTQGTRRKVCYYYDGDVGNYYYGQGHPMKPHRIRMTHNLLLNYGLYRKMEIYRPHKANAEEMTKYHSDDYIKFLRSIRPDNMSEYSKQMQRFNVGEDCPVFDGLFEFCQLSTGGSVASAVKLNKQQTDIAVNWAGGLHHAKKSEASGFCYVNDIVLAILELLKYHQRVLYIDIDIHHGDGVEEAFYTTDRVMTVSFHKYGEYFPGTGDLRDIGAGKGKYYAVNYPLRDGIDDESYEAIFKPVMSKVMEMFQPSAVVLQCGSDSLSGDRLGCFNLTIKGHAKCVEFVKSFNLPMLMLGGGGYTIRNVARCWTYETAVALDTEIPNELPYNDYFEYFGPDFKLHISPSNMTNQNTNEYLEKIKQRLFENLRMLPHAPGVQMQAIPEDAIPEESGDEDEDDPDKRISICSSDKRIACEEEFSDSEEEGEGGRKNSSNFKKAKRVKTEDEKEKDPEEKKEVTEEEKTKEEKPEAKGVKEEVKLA

Turning to `C=CCCC(=O)Nc1ccc(C(=O)N2CCc3nc(C(=O)NO)sc3C2)cc1`, the IC50 (as a rule, the point on the concentration scale where inhibition reaches its midpoint) in test [1] was determined as 0.39 µM; on Histone deacetylase 3, 9.38 µM; on Histone deacetylase 1 it was 9.7 µM.

For `COc1ccc(/C=C/C(=O)Nc2ccc(C(=O)N3CCc4nc(C(=O)NO)sc4C3)cc2)cc1`, the results for the IC50 (in test [1]; at Histone deacetylase 3; at Histone deacetylase 1) were 0.45 µM, 16.1 µM and 22.5 µM, respectively.

For the compound `O=C(Nc1ccc(C(=O)N2CCc3nc(C(=O)NO)sc3C2)cc1)c1ccc(-c2ccccc2)s1`, the half-maximal inhibitory concentration (IC50) in test [1] was 0.12 µM; on Histone deacetylase 3 it was 2.66 µM; on Histone deacetylase 1, 2.59 µM.

Turning to `C=CCCC(=O)NCCCN1CCc2nc(C(=O)NO)sc2C1`, the IC50 in test [1] is 58.7 µM.

On to `O=C(/C=C/c1ccccc1)NCCCN1CCc2nc(C(=O)NO)sc2C1`, for which the IC50 in test [1] is 13.5 µM; at Histone deacetylase 3, 13.5 µM; at Histone deacetylase 1 it was 39.4 µM.

Consider `COc1ccc(/C=C/C(=O)NCCCN2CCc3nc(C(=O)NO)sc3C2)cc1`, for which the IC50 in test [1] turned out to be 8.77 µM; at Histone deacetylase 3, 6.62 µM; on Histone deacetylase 1 it was 10.3 µM.

For `O=C(NCCCN1CCc2nc(C(=O)NO)sc2C1)c1ccc(-c2ccccc2)s1`, the IC50 in test [1] amounted to 3.39 µM; on Histone deacetylase 3, 5.09 µM; on Histone deacetylase 1 it was 5.67 µM.

With `C=CCCC(=O)NCCCCN1CCc2nc(C(=O)NO)sc2C1`, in test [1], the IC50 was found to be 24.7 µM.

On to `O=C(/C=C/c1ccccc1)NCCCCN1CCc2nc(C(=O)NO)sc2C1`, for which the IC50 came out at 23.2 µM in test [1], 26.4 µM at Histone deacetylase 3 and 40.1 µM at Histone deacetylase 1.

Consider `COc1ccc(/C=C/C(=O)NCCCCN2CCc3nc(C(=O)NO)sc3C2)cc1`, for which the IC50 in test [1] stood at 9.55 µM; at Histone deacetylase 3 it was 34.1 µM; at Histone deacetylase 1, 35.1 µM.

For `O=C(NCCCCN1CCc2nc(C(=O)NO)sc2C1)c1ccc(-c2ccccc2)s1`, the IC50 was 2.69 µM in test [1], 4.89 µM on Histone deacetylase 3 and 6.08 µM on Histone deacetylase 1.

Take `C=CCCC(=O)Nc1ccc(C(C)N2CCc3nc(C(=O)NO)sc3C2)cn1` (centres undefined): the results for the IC50 (in test [1]; at Histone deacetylase 3; at Histone deacetylase 1) were 13.5 µM, 19.2 µM and 65.7 µM, respectively.

On to `CC(c1ccc(NC(=O)/C=C/c2ccccc2)nc1)N1CCc2nc(C(=O)NO)sc2C1` (centres undefined), for which the IC50 in test [1] was found to be 1.07 µM; on Histone deacetylase 3, 4.8 µM; on Histone deacetylase 1, 6.8 µM.

On to `COc1ccc(/C=C/C(=O)Nc2ccc(C(C)N3CCc4nc(C(=O)NO)sc4C3)cn2)cc1` (centres undefined), for which the IC50 is 1.55 µM in test [1], 5.7 µM on Histone deacetylase 3 and 6.8 µM at Histone deacetylase 1.

Regarding `CC(c1ccc(NC(=O)c2ccc(-c3ccccc3)s2)nc1)N1CCc2nc(C(=O)NO)sc2C1` (centres undefined), the IC50 stood at 1.33 µM in test [1], 1.94 µM at Histone deacetylase 3 and 2.96 µM at Histone deacetylase 1.

On to `CC(C)N(C(=O)/C=C/c1ccccc1)c1cccc(CN2CCc3nc(C(=O)NO)sc3C2)c1`, for which the IC50 came out at 1.22 µM in test [1], 2.19 µM at Histone deacetylase 3 and 11.5 µM at Histone deacetylase 1.

For the origin of these results see ChEMBL document CHEMBL2046379, “CCLab--a multi-objective genetic algorithm based combinatorial library design software and an application for histone deacetylase inhibitor design” (Bioorg Med Chem Lett, 2012).
